Measured values as given in ChEMBL document CHEMBL4665869, “New thiazolopyrimidine as anticancer agents: Synthesis, biological evaluation, DNA binding, molecular modeling and ADMET study” (Bioorg Med Chem Lett, 2020).

What was measured:
Assay type in all cases: functional
Settings in all cases: read-out: GI
SN12C = assay: Growth inhibition of human SN12C cells at 10 uM relative to control
OVCAR-4 = assay: Growth inhibition of human OVCAR-4 cells at 10 uM relative to control
SK-OV-3 = assay: Growth inhibition of human SK-OV-3 cells at 10 uM relative to control
HT-29 = assay: Growth inhibition of human HT-29 cells at 10 uM relative to control
SR = assay: Growth inhibition of human SR cells at 10 uM relative to control
RXF 393 = assay: Growth inhibition of human RXF 393 cells at 10 uM relative to control
SNB-19 = assay: Growth inhibition of human SNB-19 cells at 10 uM relative to control
A498 = assay: Growth inhibition of human A498 cells at 10 uM relative to control
NCI/ADR-RES = assay: Growth inhibition of human NCI/ADR-RES cells at 10 uM relative to control
TK-10 = assay: Growth inhibition of human TK-10 cells at 10 uM relative to control
SNB-75 = assay: Growth inhibition of human SNB-75 cells at 10 uM relative to control
DU-145 = assay: Growth inhibition of human DU-145 cells at 10 uM relative to control
M14 = assay: Growth inhibition of human M14 cells at 10 uM relative to control
CAKI-1 = assay: Growth inhibition of human CAKI-1 cells at 10 uM relative to control
SK-MEL-5 = assay: Growth inhibition of human SK-MEL-5 cells at 10 uM relative to control
K562 = assay: Growth inhibition of human K562 cells at 10 uM relative to control
HCT-15 = assay: Growth inhibition of human HCT-15 cells at 10 uM relative to control
HOP-62 = assay: Growth inhibition of human HOP-62 cells at 10 uM relative to control
CCRF-CEM = assay: Growth inhibition of human CCRF-CEM cells at 10 uM relative to control
UACC-257 = assay: Growth inhibition of human UACC-257 cells at 10 uM relative to control
SK-MEL-28 = assay: Growth inhibition of human SK-MEL-28 cells at 10 uM relative to control
HL-60(TB) = assay: Growth inhibition of human HL-60(TB) cells at 10 uM relative to control
Malme-3M = assay: Growth inhibition of human Malme-3M cells at 10 uM relative to control
KM12 = assay: Growth inhibition of human KM12 cells at 10 uM relative to control
NCI-H460 = assay: Growth inhibition of human NCI-H460 cells at 10 uM relative to control
Hs-578T = assay: Growth inhibition of human Hs-578T cells at 10 uM relative to control
IGROV-1 = assay: Growth inhibition of human IGROV-1 cells at 10 uM relative to control
UO-31 = assay: Growth inhibition of human UO-31 cells at 10 uM relative to control
MDA-MB-435 = assay: Growth inhibition of human MDA-MB-435 cells at 10 uM relative to control

For `CCOC(=O)C1=CSC2=NC(/C=C/c3ccc(Cl)cc3)=CC(c3ccc(Cl)cc3)N12` (centres undefined), the inhibition of growth at 10 µM (SN12C) was < 10%, the inhibition of growth at 10 µM (OVCAR-4) was < 10% and the inhibition of growth at 10 µM (SK-OV-3) was < 10%. The inhibition of growth at 10 µM (HT-29) was < 10%, the inhibition of growth at 10 µM (SR) was < 10% and the inhibition of growth at 10 µM (RXF 393) was < 10%. The inhibition of growth at 10 µM (SNB-19) was < 10%, the inhibition of growth at 10 µM (A498) was 11.8% and the inhibition of growth at 10 µM (NCI/ADR-RES) was < 10%. For the same compound, the inhibition of growth at 10 µM (TK-10) was < 10%, the inhibition of growth at 10 µM (SNB-75) was < 10% and the inhibition of growth at 10 µM (DU-145) was < 10%. For the same compound, the inhibition of growth at 10 µM (M14) was < 10%, the inhibition of growth at 10 µM (CAKI-1) was < 10% and the inhibition of growth at 10 µM (SK-MEL-5) was < 10%. For the same compound, the inhibition of growth at 10 µM (K562) was 12.4%, the inhibition of growth at 10 µM (HCT-15) was < 10% and the inhibition of growth at 10 µM (HOP-62) was < 10%. For the same compound, the inhibition of growth at 10 µM (CCRF-CEM) was < 10%, the inhibition of growth at 10 µM (UACC-257) was < 10% and the inhibition of growth at 10 µM (SK-MEL-28) was < 10%. For the same compound, the inhibition of growth at 10 µM (HL-60(TB)) was < 10%, the inhibition of growth at 10 µM (Malme-3M) was < 10% and the inhibition of growth at 10 µM (KM12) was < 10%. For the same compound, the inhibition of growth at 10 µM (NCI-H460) was < 10%, the inhibition of growth at 10 µM (Hs-578T) was < 10% and the inhibition of growth at 10 µM (IGROV-1) was < 10%. The inhibition of growth at 10 µM (UO-31) was < 10% and the inhibition of growth at 10 µM (MDA-MB-435) was < 10%.
